Measured values as given in patent publication EP1247803A2, “Indolinone compounds suitable for modulation of protein kinases” (Sugen, Inc., priority 1996, dated 1998).

Tests used:
EGFR = molecular target: T1, EGFR (Homo sapiens, UniProt P00533); experiment: EGFR ELISA assay (in vitro kinase activity, EGFR captured from A431 cell lysate); type: biochemical; parameters: concentration or dose not given beside the values
T1 construct: Add 7 ug A431 cell lysate per well (EGFR source); endogenous in cells; host or cells: A431
Summary of the method: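 EGFR from A431 lysate was captured on plates coated with anti-EGFR antibody. Compounds were added 30 min before a 5 min phosphorylation with 3 µM ATP/5 mM MnCl2, which was stopped with 20 mM EDTA. Phosphotyrosine was detected with rabbit anti-phosphotyrosine, then a peroxidase-conjugated secondary and ABTS/H2O2, read at 410 nm.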

PDGF-R = PDGF-R (Homo sapiens, UniProt P09619); experiment: PDGF-R ELISA; type: cell-based
Excerpt: A PDGF-R ELISA is described in International Patent Publication No. WO 96/40116, published December 19, 1996 by Tang et al.

T1 sequence (P00533 25-1210): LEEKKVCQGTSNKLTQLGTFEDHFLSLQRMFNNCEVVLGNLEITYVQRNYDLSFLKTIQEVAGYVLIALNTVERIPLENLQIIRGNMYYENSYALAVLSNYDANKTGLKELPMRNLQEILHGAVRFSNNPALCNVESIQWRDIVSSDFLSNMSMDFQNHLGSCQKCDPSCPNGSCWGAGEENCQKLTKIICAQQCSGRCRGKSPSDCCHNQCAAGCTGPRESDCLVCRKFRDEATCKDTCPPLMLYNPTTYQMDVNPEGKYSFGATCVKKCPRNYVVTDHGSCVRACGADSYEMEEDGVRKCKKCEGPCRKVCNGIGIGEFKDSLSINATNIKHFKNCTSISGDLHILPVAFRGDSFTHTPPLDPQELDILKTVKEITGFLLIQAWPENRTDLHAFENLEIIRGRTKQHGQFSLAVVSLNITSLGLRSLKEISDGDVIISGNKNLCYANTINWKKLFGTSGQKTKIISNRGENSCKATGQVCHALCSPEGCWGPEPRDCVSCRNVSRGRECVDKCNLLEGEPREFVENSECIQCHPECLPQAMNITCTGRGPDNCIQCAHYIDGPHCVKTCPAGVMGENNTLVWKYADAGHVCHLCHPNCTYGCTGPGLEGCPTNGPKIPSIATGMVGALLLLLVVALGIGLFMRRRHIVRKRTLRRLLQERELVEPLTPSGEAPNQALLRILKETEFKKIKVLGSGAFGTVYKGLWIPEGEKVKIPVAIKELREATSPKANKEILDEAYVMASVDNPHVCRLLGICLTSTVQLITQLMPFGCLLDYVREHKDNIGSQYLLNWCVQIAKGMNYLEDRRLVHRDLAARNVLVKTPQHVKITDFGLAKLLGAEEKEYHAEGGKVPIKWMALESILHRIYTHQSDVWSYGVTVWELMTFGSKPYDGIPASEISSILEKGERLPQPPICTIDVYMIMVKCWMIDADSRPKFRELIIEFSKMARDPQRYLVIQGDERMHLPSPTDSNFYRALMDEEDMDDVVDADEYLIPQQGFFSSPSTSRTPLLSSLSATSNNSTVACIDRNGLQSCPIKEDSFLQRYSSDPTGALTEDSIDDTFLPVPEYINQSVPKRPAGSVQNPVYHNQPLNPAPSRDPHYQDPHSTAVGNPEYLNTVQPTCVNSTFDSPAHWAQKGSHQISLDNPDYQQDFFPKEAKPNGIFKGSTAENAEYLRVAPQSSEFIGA
Sequence of PDGF-R (P09619 33-1106, species assumed): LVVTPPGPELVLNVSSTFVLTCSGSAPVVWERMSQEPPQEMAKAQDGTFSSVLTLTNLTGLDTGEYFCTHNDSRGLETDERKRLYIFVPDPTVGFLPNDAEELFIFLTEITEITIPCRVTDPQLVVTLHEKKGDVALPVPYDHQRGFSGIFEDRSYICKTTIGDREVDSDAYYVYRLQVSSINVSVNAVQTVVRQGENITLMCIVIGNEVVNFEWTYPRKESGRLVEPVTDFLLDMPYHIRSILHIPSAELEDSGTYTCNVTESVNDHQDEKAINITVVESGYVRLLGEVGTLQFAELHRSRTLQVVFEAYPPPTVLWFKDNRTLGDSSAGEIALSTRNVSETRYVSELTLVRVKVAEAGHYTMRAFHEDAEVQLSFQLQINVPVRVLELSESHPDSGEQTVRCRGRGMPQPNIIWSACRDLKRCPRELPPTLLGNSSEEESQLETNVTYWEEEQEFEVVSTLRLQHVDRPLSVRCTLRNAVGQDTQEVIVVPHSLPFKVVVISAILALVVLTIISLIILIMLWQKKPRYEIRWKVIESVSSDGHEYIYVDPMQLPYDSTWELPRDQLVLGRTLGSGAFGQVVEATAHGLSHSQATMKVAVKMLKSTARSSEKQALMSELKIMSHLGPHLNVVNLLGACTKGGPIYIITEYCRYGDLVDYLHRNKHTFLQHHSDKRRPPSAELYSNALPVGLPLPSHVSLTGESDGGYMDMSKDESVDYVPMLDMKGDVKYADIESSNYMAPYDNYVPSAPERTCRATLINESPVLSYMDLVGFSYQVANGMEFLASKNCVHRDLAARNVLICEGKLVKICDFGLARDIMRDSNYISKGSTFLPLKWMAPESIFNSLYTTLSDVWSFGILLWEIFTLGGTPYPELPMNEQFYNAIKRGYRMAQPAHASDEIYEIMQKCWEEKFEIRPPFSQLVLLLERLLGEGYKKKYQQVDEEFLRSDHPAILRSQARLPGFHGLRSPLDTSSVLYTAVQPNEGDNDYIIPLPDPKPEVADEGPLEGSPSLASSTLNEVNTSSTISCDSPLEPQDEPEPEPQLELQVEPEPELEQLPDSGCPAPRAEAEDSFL

Compound: O=C1Nc2c(Br)cc(Br)cc2C1=Cc1c[nH]c2ccccc12 [10717/A06]
- Biochem EGFR %Inhibition (EGFR): -7.8%

Compound: Cn1cccc1C=C1C(=O)Nc2ccc(CCCl)cc21 [10717/G04]
- Biochem EGFR %Inhibition (EGFR): 6.0%

Compound: O=C1Nc2ccc(CCCl)cc2C1=Cc1ccc(F)cc1 [10717/G05]
- Biochem EGFR %Inhibition (EGFR): -0.1%

Compound: O=C1Nc2ccc(CCCl)cc2C1=Cc1c[nH]c2ccccc12 [10717/G06]
- Biochem EGFR %Inhibition (EGFR): -3.4%

Compound: Cc1ccc(C=C2C(=O)Nc3ccc(CCCl)cc32)s1 [10717/G07]
- Biochem EGFR %Inhibition (EGFR): 13.1%

Compound: O=C1Nc2ccc(CCCl)cc2C1=Cc1ccc(Br)cc1 [10717/G08]
- Biochem EGFR %Inhibition (EGFR): 36.4%

Compound: O=C1Nc2ccc(CCCl)cc2C1=Cc1ccc[nH]1 [10717/G09]
- Biochem EGFR %Inhibition (EGFR): 24.9%

Compound: COc1cccc(O)c1C=C1C(=O)Nc2ccc(CCCl)cc21 [10717/G10]
- Biochem EGFR %Inhibition (EGFR): 2.4%

Compound: Cc1c(Br)ccc2c1C(=C1C(=O)Nc3ccc(F)cc31)C(=O)N2 [10726/C08]
- Biochem EGFR %Inhibition (EGFR): 7.5%
- PDGF Kinase %Inhibition (PDGF-R): 21.4%

Compound: Cc1c(Br)ccc2c1C(=C1C(=O)Nc3ccccc31)C(=O)N2 [10726/C09]
- Biochem EGFR %Inhibition (EGFR): -14.3%
- PDGF Kinase %Inhibition (PDGF-R): 26.5%

Compound: CCc1ccc(C=C2C(=O)Nc3ccc(Br)c(C)c32)s1 [10726/C10]
- Biochem EGFR %Inhibition (EGFR): 2.8%
- PDGF Kinase %Inhibition (PDGF-R): 16.4%

Compound: COc1ccc(C=C2C(=O)Nc3ccc(Br)c(C)c32)cc1 [10726/C11]
- Biochem EGFR %Inhibition (EGFR): 4.8%
- PDGF Kinase %Inhibition (PDGF-R): 51.1%

Compound: CCOC(=O)c1[nH]c(C=C2C(=O)Nc3ccc(S(=O)(=O)NC)cc32)c(C(=O)OC)c1C [10726/D03]
- Biochem EGFR %Inhibition (EGFR): -5.4%
- PDGF Kinase %Inhibition (PDGF-R): 21.4%

Compound: CNS(=O)(=O)c1ccc2c(c1)C(=Cc1cc(C)c(O)c(C(C)(C)C)c1)C(=O)N2 [10726/D04]
- Biochem EGFR %Inhibition (EGFR): -20.1%
- PDGF Kinase %Inhibition (PDGF-R): 34.1%

Compound: CNS(=O)(=O)c1ccc2c(c1)C(=Cc1ccc(Br)o1)C(=O)N2 [10726/D05]
- Biochem EGFR %Inhibition (EGFR): -8.1%
- PDGF Kinase %Inhibition (PDGF-R): 39.1%

Compound: CNS(=O)(=O)c1ccc2c(c1)C(=Cc1cn(C)cc1C)C(=O)N2 [10726/D06]
- Biochem EGFR %Inhibition (EGFR): -24.4%
- PDGF Kinase %Inhibition (PDGF-R): 28.4%

Compound: CNS(=O)(=O)c1ccc2c(c1)C(=Cc1cc(O)c3c(c1O)CCCC3)C(=O)N2 [10726/D07]
- Biochem EGFR %Inhibition (EGFR): 18.5%
- PDGF Kinase %Inhibition (PDGF-R): -81.0%

Compound: CNS(=O)(=O)c1ccc2c(c1)C(=C1C(=O)Nc3ccc(F)cc31)C(=O)N2 [10726/D08]
- Biochem EGFR %Inhibition (EGFR): -11.4%
- PDGF Kinase %Inhibition (PDGF-R): 22.1%

Compound: CNS(=O)(=O)c1ccc2c(c1)C(=C1C(=O)Nc3ccccc31)C(=O)N2 [10726/D09]
- Biochem EGFR %Inhibition (EGFR): -6.5%
- PDGF Kinase %Inhibition (PDGF-R): 22.1%

Compound: CCc1ccc(C=C2C(=O)Nc3ccc(S(=O)(=O)NC)cc32)s1 [10726/D10]
- Biochem EGFR %Inhibition (EGFR): -6.5%
- PDGF Kinase %Inhibition (PDGF-R): 32.2%

Compound: CNS(=O)(=O)c1ccc2c(c1)C(=Cc1ccc(OC)cc1)C(=O)N2 [10726/D11]
- Biochem EGFR %Inhibition (EGFR): -6.3%
- PDGF Kinase %Inhibition (PDGF-R): 30.9%

Compound: CCOC(=O)c1[nH]c(C=C2C(=O)Nc3ccc(S(=O)(=O)Nc4ccc(C(F)(F)F)cc4)cc32)c(C(=O)OC)c1C [10726/E03]
- Biochem EGFR %Inhibition (EGFR): -15.9%
- PDGF Kinase %Inhibition (PDGF-R): 20.2%

Compound: Cc1cc(C=C2C(=O)Nc3ccc(S(=O)(=O)Nc4ccc(C(F)(F)F)cc4)cc32)cc(C(C)(C)C)c1O [10726/E04]
- Biochem EGFR %Inhibition (EGFR): 53.0%
- PDGF Kinase %Inhibition (PDGF-R): 12.6%

Compound: O=C1Nc2ccc(S(=O)(=O)Nc3ccc(C(F)(F)F)cc3)cc2C1=Cc1ccc(Br)o1 [10726/E05]
- Biochem EGFR %Inhibition (EGFR): 5.5%
- PDGF Kinase %Inhibition (PDGF-R): 4.3%

Compound: Cc1cn(C)cc1C=C1C(=O)Nc2ccc(S(=O)(=O)Nc3ccc(C(F)(F)F)cc3)cc21 [10726/E06]
- Biochem EGFR %Inhibition (EGFR): -20.6%
- PDGF Kinase %Inhibition (PDGF-R): 41.7%

Compound: O=C1Nc2ccc(S(=O)(=O)Nc3ccc(C(F)(F)F)cc3)cc2C1=Cc1cc(O)c2c(c1O)CCCC2 [10726/E07]
- Biochem EGFR %Inhibition (EGFR): 20.5%
- PDGF Kinase %Inhibition (PDGF-R): -12.1%

Compound: O=C1Nc2ccc(F)cc2C1=C1C(=O)Nc2ccc(S(=O)(=O)Nc3ccc(C(F)(F)F)cc3)cc21 [10726/E08]
- Biochem EGFR %Inhibition (EGFR): -8.5%
- PDGF Kinase %Inhibition (PDGF-R): 34.1%

Compound: O=C1Nc2ccccc2C1=C1C(=O)Nc2ccc(S(=O)(=O)Nc3ccc(C(F)(F)F)cc3)cc21 [10726/E09]
- Biochem EGFR %Inhibition (EGFR): 10.0%
- PDGF Kinase %Inhibition (PDGF-R): 34.7%

Compound: CCc1ccc(C=C2C(=O)Nc3ccc(S(=O)(=O)Nc4ccc(C(F)(F)F)cc4)cc32)s1 [10726/E10]
- Biochem EGFR %Inhibition (EGFR): -9.0%
- PDGF Kinase %Inhibition (PDGF-R): 37.9%

Compound: COc1ccc(C=C2C(=O)Nc3ccc(S(=O)(=O)Nc4ccc(C(F)(F)F)cc4)cc32)cc1 [10726/E11]
- Biochem EGFR %Inhibition (EGFR): -14.1%
- PDGF Kinase %Inhibition (PDGF-R): 30.3%

Compound: CCOC(=O)c1[nH]c(C=C2C(=O)Nc3ccc(S(=O)(=O)N4CCOCC4)cc32)c(C(=O)OC)c1C [10726/F03]
- Biochem EGFR %Inhibition (EGFR): -17.4%
- PDGF Kinase %Inhibition (PDGF-R): 5.6%

Compound: Cc1cc(C=C2C(=O)Nc3ccc(S(=O)(=O)N4CCOCC4)cc32)cc(C(C)(C)C)c1O [10726/F04]
- Biochem EGFR %Inhibition (EGFR): 33.4%
- PDGF Kinase %Inhibition (PDGF-R): 18.3%

Compound: O=C1Nc2ccc(S(=O)(=O)N3CCOCC3)cc2C1=Cc1ccc(Br)o1 [10726/F05]
- Biochem EGFR %Inhibition (EGFR): -26.8%
- PDGF Kinase %Inhibition (PDGF-R): -17.8%

Compound: Cc1cn(C)cc1C=C1C(=O)Nc2ccc(S(=O)(=O)N3CCOCC3)cc21 [10726/F06]
- Biochem EGFR %Inhibition (EGFR): -24.1%
- PDGF Kinase %Inhibition (PDGF-R): 17.0%

Compound: O=C1Nc2ccc(S(=O)(=O)N3CCOCC3)cc2C1=Cc1cc(O)c2c(c1O)CCCC2 [10726/F07]
- Biochem EGFR %Inhibition (EGFR): 76.2%
- PDGF Kinase %Inhibition (PDGF-R): -99.4%

Compound: O=C1Nc2ccc(F)cc2C1=C1C(=O)Nc2ccc(S(=O)(=O)N3CCOCC3)cc21 [10726/F08]
- Biochem EGFR %Inhibition (EGFR): -21.5%
- PDGF Kinase %Inhibition (PDGF-R): 28.4%

Compound: O=C1Nc2ccccc2C1=C1C(=O)Nc2ccc(S(=O)(=O)N3CCOCC3)cc21 [10726/F09]
- Biochem EGFR %Inhibition (EGFR): -22.8%
- PDGF Kinase %Inhibition (PDGF-R): -2.6%

Compound: CCc1ccc(C=C2C(=O)Nc3ccc(S(=O)(=O)N4CCOCC4)cc32)s1 [10726/F10]
- Biochem EGFR %Inhibition (EGFR): -17.4%
- PDGF Kinase %Inhibition (PDGF-R): 9.4%

Compound: COc1ccc(C=C2C(=O)Nc3ccc(S(=O)(=O)N4CCOCC4)cc32)cc1 [10726/F11]
- Biochem EGFR %Inhibition (EGFR): -16.8%
- PDGF Kinase %Inhibition (PDGF-R): 25.2%

Compound: CCOC(=O)c1[nH]c(C=C2C(=O)Nc3ccc(CCCl)cc32)c(C(=O)OC)c1C [10726/G03]
- Biochem EGFR %Inhibition (EGFR): -17.2%
- PDGF Kinase %Inhibition (PDGF-R): 4.3%

Compound: Cc1cc(C=C2C(=O)Nc3ccc(CCCl)cc32)cc(C(C)(C)C)c1O [10726/G04]
- Biochem EGFR %Inhibition (EGFR): 60.6%
- PDGF Kinase %Inhibition (PDGF-R): 14.5%

Compound: O=C1Nc2ccc(CCCl)cc2C1=Cc1ccc(Br)o1 [10726/G05]
- Biochem EGFR %Inhibition (EGFR): 5.1%
- PDGF Kinase %Inhibition (PDGF-R): 6.2%

Compound: Cc1cn(C)cc1C=C1C(=O)Nc2ccc(CCCl)cc21 [10726/G06]
- Biochem EGFR %Inhibition (EGFR): -37.5%
- PDGF Kinase %Inhibition (PDGF-R): -26.6%

Compound: O=C1Nc2ccc(CCCl)cc2C1=Cc1cc(O)c2c(c1O)CCCC2 [10726/G07]
- Biochem EGFR %Inhibition (EGFR): 54.4%
- PDGF Kinase %Inhibition (PDGF-R): -107.6%

Compound: O=C1Nc2ccc(F)cc2C1=C1C(=O)Nc2ccc(CCCl)cc21 [10726/G08]
- Biochem EGFR %Inhibition (EGFR): -2.7%
- PDGF Kinase %Inhibition (PDGF-R): 14.5%

Compound: O=C1Nc2ccccc2C1=C1C(=O)Nc2ccc(CCCl)cc21 [10726/G09]
- Biochem EGFR %Inhibition (EGFR): 3.3%
- PDGF Kinase %Inhibition (PDGF-R): 13.2%

Compound: CCc1ccc(C=C2C(=O)Nc3ccc(CCCl)cc32)s1 [10726/G10]
- Biochem EGFR %Inhibition (EGFR): 6.0%
- PDGF Kinase %Inhibition (PDGF-R): -7.0%

Compound: COc1ccc(C=C2C(=O)Nc3ccc(CCCl)cc32)cc1 [10726/G11]
- Biochem EGFR %Inhibition (EGFR): 1.3%
- PDGF Kinase %Inhibition (PDGF-R): -7.7%

Compound: CCN(CC)c1ccc(C=C2C(=O)Nc3c(Br)cc(Br)cc32)cc1 [10727/A02]
- Biochem EGFR %Inhibition (EGFR): 3.2%
- PDGF Kinase %Inhibition (PDGF-R): -10.3%

Compound: CCc1cc(CC)c(C=C2C(=O)Nc3c(Br)cc(Br)cc32)[nH]1 [10727/A03]
- Biochem EGFR %Inhibition (EGFR): -19.2%
- PDGF Kinase %Inhibition (PDGF-R): -4.5%

Compound: O=C1Nc2c(Br)cc(Br)cc2C1=Cc1cc(Cl)cc(Br)c1O [10727/A04]
- Biochem EGFR %Inhibition (EGFR): 28.2%
- PDGF Kinase %Inhibition (PDGF-R): 12.3%

Compound: O=C1Nc2c(Br)cc(Br)cc2C1=Cc1ccccc1Sc1ccc(Cl)cc1 [10727/A05]
- Biochem EGFR %Inhibition (EGFR): -3.0%
- PDGF Kinase %Inhibition (PDGF-R): 5.7%

Compound: O=C1Nc2c(Br)cc(Br)cc2C1=Cc1cc2c(cc1Cl)OCO2 [10727/A06]
- Biochem EGFR %Inhibition (EGFR): -6.3%
- PDGF Kinase %Inhibition (PDGF-R): 13.7%
